Columns and labels:
Mus musculus [1] = test: In vivo inhibition of HDAC6 in C57BL/6 mouse assessed as increase in acetylated tubulin level in spleen cytosolic protein extract at 30 mg/kg, ip measured after 60 mins by ELISA relative to control; format: functional
[2] = Toxicity in C57BL/6 mouse assessed as effect on WBC level at 50 mg/kg, ip administered for 5 days/week for two cycles and measured 60 mins post last dose by beckman coulter counting method relative to control; format: organism-based; settings: in vivo, 1 h
[3] = Toxicity in ip dosed C57BL/6 mouse administered for 5 days/week for two cycles; format: organism-based; settings: in vivo
[4] = Total clearance in CD-1 mouse at […], iv measured within 6 hrs by LC-MS/MS analysis; format: ADME, organism-based; settings: in vivo
[5] = Oral bioavailability in CD-1 mouse at 5.2 mg/kg measured within 6 hrs by LC-MS/MS analysis; format: ADME, organism-based; settings: in vivo
[6] = Inhibition of C57BL/6 mouse effector T cells proliferation at 500 nM after 72 hrs in absence of regulatory T cells by CFSE dye based flow cytometric assay relative to control
[7] = Selectivity ratio of IC50 for C-terminal GST-tagged human HDAC5 to IC50 for human N-terminal GST-tagged HDAC6 expressed in baculovirus infected sf9 insect cells
[8] = Toxicity in C57BL/6 mouse assessed as effect on WBC level at 10 mg/kg, ip administered for 5 days/week for two cycles and measured 60 mins post last dose by beckman coulter counting method relative to control; format: organism-based; settings: in vivo, 1 h
[9] = Selectivity ratio of IC50 for N-terminal Flag-tagged human HDAC10 (2 to 631 residues) expressed in baculovirus infected sf9 insect cells to IC50 for human N-terminal GST-tagged HDAC6 expressed in baculovirus infected sf9 insect cells
[10] = Toxicity in C57BL/6 mouse assessed as effect on body weight at 50 mg/kg, ip administered for 5 days/week for two cycles and measured every other day relative to control; format: organism-based; settings: in vivo, 120 h
[11] = Toxicity in C57BL/6 mouse assessed as effect on body temperature up to 50 mg/kg, ip administered for 5 days/week for two cycles and measured daily starting from day 1; format: organism-based; settings: in vivo, 120 h
[12] = Toxicity in C57BL/6 mouse assessed as effect on body weight at 30 mg/kg, ip administered for 5 days/week for two cycles and measured every other day relative to control; format: organism-based; settings: in vivo, 120 h
Mus musculus [13] = test: In vivo inhibition of HDAC in C57BL/6 mouse assessed as increase in acetylated-histone H3 level in spleen nuclear protein extracts at 30 mg/kg, ip measured after 60 mins by sandwich ELISA relative to control; format: organism-based; settings: 1 h
[14] = Stability in rat liver S9 fraction assessed as parent compound remaining at 5 uM after 90 mins in presence of NADPH by LC-MS/MS analysis; format: ADME, subcellular; settings: read-out: Stability
[15] = Toxicity in C57BL/6 mouse assessed as effect on stool up to 50 mg/kg, ip administered for 5 days/week for two cycles and measured daily starting from day 1; format: organism-based; settings: in vivo, 120 h
[16] = Total AUC in CD-1 mouse at 5.2 mg/kg, po measured within 6 hrs by LC-MS/MS analysis; format: ADME, organism-based; parameters: dose 5.2 mg/kg, route oral, time AUCmax; settings: in vivo
[17] = Selectivity ratio of IC50 for human HDAC4 expressed in baculovirus infected sf9 insect cells to IC50 for human N-terminal GST-tagged HDAC6 expressed in baculovirus infected sf9 insect cells
[18] = Toxicity in C57BL/6 mouse assessed as effect on WBC level at 30 mg/kg, ip administered for 5 days/week for two cycles and measured 60 mins post last dose by beckman coulter counting method relative to control; format: organism-based; settings: in vivo, 1 h
[19] = Toxicity in C57BL/6 mouse assessed as effect on body weight at 10 mg/kg, ip administered for 5 days/week for two cycles and measured every other day relative to control; format: organism-based; settings: in vivo, 120 h
[20] = Toxicity in C57BL/6 mouse assessed as effect on spasms up to 50 mg/kg, ip administered for 5 days/week for two cycles and measured daily starting from day 1; format: organism-based; settings: in vivo, 120 h
[21] = target: T1, Protein deacetylase HDAC6 (Mus musculus) (UniProt Q9Z2V5); test: Inhibition of HDAC6 in C57BL/6 mouse regulatory T cells assessed as increase in Treg-mediated suppression of anti-CD3 induced CD4+ cell division at 500 nM after 72 hrs in presence mitomycin-treated APC by CFSE dye based flow cytometric assay relative to control
T1 sequence (whole entry): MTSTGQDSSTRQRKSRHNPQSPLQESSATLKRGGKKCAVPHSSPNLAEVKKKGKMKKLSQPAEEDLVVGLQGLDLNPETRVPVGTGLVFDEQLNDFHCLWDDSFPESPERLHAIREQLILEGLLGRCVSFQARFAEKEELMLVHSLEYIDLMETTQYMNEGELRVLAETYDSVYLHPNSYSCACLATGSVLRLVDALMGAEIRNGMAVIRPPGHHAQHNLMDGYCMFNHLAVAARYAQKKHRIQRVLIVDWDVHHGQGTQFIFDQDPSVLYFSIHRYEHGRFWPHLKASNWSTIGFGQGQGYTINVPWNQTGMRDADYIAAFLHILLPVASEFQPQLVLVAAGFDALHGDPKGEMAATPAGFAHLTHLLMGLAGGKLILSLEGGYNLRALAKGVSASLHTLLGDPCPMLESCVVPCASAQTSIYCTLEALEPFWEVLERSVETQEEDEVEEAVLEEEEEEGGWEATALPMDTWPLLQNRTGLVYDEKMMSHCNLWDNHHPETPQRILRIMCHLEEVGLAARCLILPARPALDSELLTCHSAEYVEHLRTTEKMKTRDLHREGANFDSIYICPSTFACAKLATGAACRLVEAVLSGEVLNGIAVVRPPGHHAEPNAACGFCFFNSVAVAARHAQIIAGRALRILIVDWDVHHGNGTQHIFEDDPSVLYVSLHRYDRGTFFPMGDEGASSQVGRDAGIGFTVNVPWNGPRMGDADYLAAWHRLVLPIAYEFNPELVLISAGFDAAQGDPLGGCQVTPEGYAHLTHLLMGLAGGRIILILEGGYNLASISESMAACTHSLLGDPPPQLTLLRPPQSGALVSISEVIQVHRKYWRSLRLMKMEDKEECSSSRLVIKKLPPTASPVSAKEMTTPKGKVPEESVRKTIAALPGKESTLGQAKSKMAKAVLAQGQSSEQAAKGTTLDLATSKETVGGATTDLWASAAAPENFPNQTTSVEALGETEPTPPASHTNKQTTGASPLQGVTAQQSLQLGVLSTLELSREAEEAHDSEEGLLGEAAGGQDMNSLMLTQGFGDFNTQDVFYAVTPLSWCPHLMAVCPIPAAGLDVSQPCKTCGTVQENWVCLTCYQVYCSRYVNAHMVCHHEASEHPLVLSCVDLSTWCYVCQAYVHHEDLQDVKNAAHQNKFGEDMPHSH

[22] = Toxicity in C57BL/6 mouse assessed as effect on platelet level at 10 mg/kg, ip administered for 5 days/week for two cycles and measured 60 mins post last dose by cell counter method relative to control; format: organism-based; settings: in vivo, 1 h
[23] = Toxicity in C57BL/6 mouse assessed as effect on social behavior up to 50 mg/kg, ip administered for 5 days/week for two cycles; format: organism-based; settings: in vivo, 120 h

## Cn1c(Sc2ccc(C(=O)NO)cc2)nnc1-c1cccs1
Mus musculus [1]
  fold change (FC): 10
[2]
  Activity: -30%
[3]
  MTD at 120 h: < 30 mg/kg
[4]
  clearance at 6 h: 182 mL/min/kg
[5]
  bioavailability: 26%
[6]
  inhibition at 72 h, 0.5 µM: < 0.5%
[7]
  Ratio IC50: 326
[8]
  Activity: 1%
[9]
  Ratio IC50: 343
[10]
  Activity: 3.5%
[11]
  Activity: Non-Toxic
[12]
  Activity: 3.9%
Mus musculus [13]
  fold change (FC): 3
[14]
  remaining at […], 5 µM: 82%
[15]
  Activity: Non-Toxic
[16]
  AUC at 6 h: 123 ng·h/mL
[17]
  Ratio IC50: 304
[18]
  Activity: -34%
[19]
  Activity: 2.8%
[20]
  Activity: Non-Toxic
[21]
  fold change (FC): > 1.5
[22]
  Activity: -11%
[23]
  Activity: Non-Toxic

Reference: ChEMBL document CHEMBL4414648, “Novel Benzohydroxamate-Based Potent and Selective Histone Deacetylase 6 (HDAC6) Inhibitors Bearing a Pentaheterocyclic Scaffold: Design, Synthesis, and Biological Evaluation” (J Med Chem, 2019)
